# Earlier results as cited in paper PMC3362725, “An open-label, phase 1 study evaluating safety, tolerability, and pharmacokinetics of linifanib (ABT-869) in Japanese patients with solid tumors” (Cancer Chemotherapy and Pharmacology, 2012).
# Set-up: method as in PMID 17634482, PMID 17557949, PMID 21131369
# Details: mixed-population TKI phase 1 studies, phase 2 recommended dose levels; cited from earlier work
row,Structure (SMILES),patients with Grade 3 hypertension
1,Cc1cc2c(F)c(Oc3ncnn4cc(OC[C@@H](C)O)c(C)c34)ccc2[nH]1 [brivanib],14–20%
2,CC1(C)CNc2cc(NC(=O)c3cccnc3NCc3ccncc3)ccc21 [motesanib],14–20%
